Measured values reported in US20260130395A1, “Water Dispersible Botanical Compositions” (Aquila Black Limited, priority 2021, published 2026).

What was measured:
Assay type in all cases: physicochemical
[1] = Stability of cannabinoid compounds and Vitamin E components in Beverage 1 (AB White) by LCMSMS; details: for storage time after which some slight degradation is shown: monitored 570 days
[2] = Stability of cannabinoid entourage and Vitamin E components of the powder concentrate by LCMSMS; details: for Stability of Plant-Derived Cannabinoid Compounds in Powder Concentrate: powder stored at 21-25° C.
Procedure: At each time period, 0.05 g of powder was dissolved in 10 ml-15 of ethanol, diluted to fall within the analytical range, and injected into the LCMSMS for analysis.

[3] = Stability of cannabinoid compounds and Vitamin E components in Beverage 2 (AB Red) by LCMSMS; details: monitored 570 days
[4] = Stability of Nanoemulsion Concentrate 3 (α-tocopherol and Vitamin B12 content) by LCMSMS; details: for Stability of Vitamin B12 in Nanoemulsion Concentrate 3: average of triplicate
Procedure: At each time period (0, 7, 28, 60, 120, 150 and 180 days), triplicate samples were analysed for content of α-tocopherol and Vitamin B12.
(FIGS. 14 and 15, Table 13). Data reported in Table 13 and plotted in FIGS. 14 and 15 are average values of the triplicate measurements taken.

## C=C(C)[C@@H]1CCC(C)=C[C@H]1c1c(O)cc(CCCCC)cc1O [CBD, cannabidiol, reference compound]
[1]; AB White stored at 8° C., 0 days
  Stability of Plant-Derived Cannabinoid Compounds in AB White, 8° C.: 28.5 µg/mL
[1]; AB White stored at 8° C., 1 days
  Stability of Plant-Derived Cannabinoid Compounds in AB White, 8° C.: 27.65 µg/mL
[1]; AB White stored at 8° C., 2 days
  Stability of Plant-Derived Cannabinoid Compounds in AB White, 8° C.: 27.67 µg/mL
[1]; AB White stored at 8° C., 3 days
  Stability of Plant-Derived Cannabinoid Compounds in AB White, 8° C.: 27.96 µg/mL
[1]; AB White stored at 8° C., 5 days
  Stability of Plant-Derived Cannabinoid Compounds in AB White, 8° C.: 28.61 µg/mL
[1]; AB White stored at 8° C., 8 days
  Stability of Plant-Derived Cannabinoid Compounds in AB White, 8° C.: 28.47 µg/mL
[1]; AB White stored at 8° C., 9 days
  Stability of Plant-Derived Cannabinoid Compounds in AB White, 8° C.: 28.44 µg/mL
[1]; AB White stored at 8° C., 10 days
  Stability of Plant-Derived Cannabinoid Compounds in AB White, 8° C.: 27.87 µg/mL
[1]; AB White stored at 8° C., 11 days
  Stability of Plant-Derived Cannabinoid Compounds in AB White, 8° C.: 28.13 µg/mL
[1]; AB White stored at 8° C., 12 days
  Stability of Plant-Derived Cannabinoid Compounds in AB White, 8° C.: 28.10 µg/mL
[1]; AB White stored at 8° C., 15 days
  Stability of Plant-Derived Cannabinoid Compounds in AB White, 8° C.: 27.99 µg/mL
[1]; AB White stored at 8° C., 16 days
  Stability of Plant-Derived Cannabinoid Compounds in AB White, 8° C.: 28.04 µg/mL
[1]; AB White stored at 8° C., 17 days
  Stability of Plant-Derived Cannabinoid Compounds in AB White, 8° C.: 27.84 µg/mL
[1]; AB White stored at 8° C., 18 days
  Stability of Plant-Derived Cannabinoid Compounds in AB White, 8° C.: 27.87 µg/mL
[1]; AB White stored at 8° C., 19 days
  Stability of Plant-Derived Cannabinoid Compounds in AB White, 8° C.: 28.36 µg/mL
[1]; AB White stored at 8° C., 22 days
  Stability of Plant-Derived Cannabinoid Compounds in AB White, 8° C.: 28.50 µg/mL
[1]; AB White stored at 8° C., 23 days
  Stability of Plant-Derived Cannabinoid Compounds in AB White, 8° C.: 27.67 µg/mL
[1]; AB White stored at 8° C., 24 days
  Stability of Plant-Derived Cannabinoid Compounds in AB White, 8° C.: 28.44 µg/mL
[1]; AB White stored at 8° C., 25 days
  Stability of Plant-Derived Cannabinoid Compounds in AB White, 8° C.: 27.65 µg/mL
[1]; AB White stored at 8° C., 26 days
  Stability of Plant-Derived Cannabinoid Compounds in AB White, 8° C.: 27.73 µg/mL
[1]; AB White stored at 8° C., 29 days
  Stability of Plant-Derived Cannabinoid Compounds in AB White, 8° C.: 28.24 µg/mL
[1]; AB White stored at 8° C., 30 days
  Stability of Plant-Derived Cannabinoid Compounds in AB White, 8° C.: 27.93 µg/mL
[1]; AB White stored at 8° C., 60 days
  Stability of Plant-Derived Cannabinoid Compounds in AB White, 8° C.: 27.73 µg/mL
[1]; AB White stored at 8° C., 90 days
  Stability of Plant-Derived Cannabinoid Compounds in AB White, 8° C.: 27.87 µg/mL
[1]; AB White stored at 8° C., 120 days
  Stability of Plant-Derived Cannabinoid Compounds in AB White, 8° C.: 27.39 µg/mL
[1]; AB White stored at 8° C., 150 days
  Stability of Plant-Derived Cannabinoid Compounds in AB White, 8° C.: 28.59 µg/mL
[1]; AB White stored at 8° C., 180 days
  Stability of Plant-Derived Cannabinoid Compounds in AB White, 8° C.: 27.59 µg/mL
[1]; AB White stored at 8° C., 210 days
  Stability of Plant-Derived Cannabinoid Compounds in AB White, 8° C.: 27.76 µg/mL
[1]; AB White stored at 8° C., 240 days
  Stability of Plant-Derived Cannabinoid Compounds in AB White, 8° C.: 27.79 µg/mL
[1]; AB White stored at 8° C., 270 days
  Stability of Plant-Derived Cannabinoid Compounds in AB White, 8° C.: 28.07 µg/mL
[1]; AB White stored at 8° C., 300 days
  Stability of Plant-Derived Cannabinoid Compounds in AB White, 8° C.: 27.96 µg/mL
[1]; AB White stored at 8° C., 330 days
  Stability of Plant-Derived Cannabinoid Compounds in AB White, 8° C.: 27.33 µg/mL
[1]; AB White stored at 8° C., 360 days
  Stability of Plant-Derived Cannabinoid Compounds in AB White, 8° C.: 27.79 µg/mL
[1]; AB White stored at 8° C., 390 days
  Stability of Plant-Derived Cannabinoid Compounds in AB White, 8° C.: 27.50 µg/mL
[1]; AB White stored at 8° C., 420 days
  Stability of Plant-Derived Cannabinoid Compounds in AB White, 8° C.: 27.50 µg/mL
[1]; AB White stored at 8° C., 480 days
  Stability of Plant-Derived Cannabinoid Compounds in AB White, 8° C.: 27.13 µg/mL
[1]; AB White stored at 8° C., 510 days
  Stability of Plant-Derived Cannabinoid Compounds in AB White, 8° C.: 26.48 µg/mL
[1]; AB White stored at 8° C., 540 days
  Stability of Plant-Derived Cannabinoid Compounds in AB White, 8° C.: 26.51 µg/mL
[1]; AB White stored at 8° C., 570 days
  Stability of Plant-Derived Cannabinoid Compounds in AB White, 8° C.: 26.22 µg/mL
[1]; AB White stored at 8° C.
  storage time after which some slight degradation is shown: > 480 days
[1]; AB White stored at 21-25° C.
  storage time after which some slight degradation is shown: > 390 days
[2]; powder concentrate stored at 21-25° C., 570 days
  degradation over the entire period (in words): no significant degradation
[2]; 0 days
  Stability of Plant-Derived Cannabinoid Compounds in Powder Concentrate: 5.85 mg/g powder
[2]; 1 days
  Stability of Plant-Derived Cannabinoid Compounds in Powder Concentrate: 5.69 mg/g powder
[2]; 2 days
  Stability of Plant-Derived Cannabinoid Compounds in Powder Concentrate: 5.76 mg/g powder
[2]; 3 days
  Stability of Plant-Derived Cannabinoid Compounds in Powder Concentrate: 5.8 mg/g powder
[2]; 5 days
  Stability of Plant-Derived Cannabinoid Compounds in Powder Concentrate: 5.84 mg/g powder
[2]; 8 days
  Stability of Plant-Derived Cannabinoid Compounds in Powder Concentrate: 5.91 mg/g powder
[2]; 9 days
  Stability of Plant-Derived Cannabinoid Compounds in Powder Concentrate: 6.01 mg/g powder
[2]; 10 days
  Stability of Plant-Derived Cannabinoid Compounds in Powder Concentrate: 5.69 mg/g powder
[2]; 11 days
  Stability of Plant-Derived Cannabinoid Compounds in Powder Concentrate: 6.00 mg/g powder
[2]; 12 days
  Stability of Plant-Derived Cannabinoid Compounds in Powder Concentrate: 5.76 mg/g powder
[2]; 15 days
  Stability of Plant-Derived Cannabinoid Compounds in Powder Concentrate: 5.85 mg/g powder
[2]; 16 days
  Stability of Plant-Derived Cannabinoid Compounds in Powder Concentrate: 5.97 mg/g powder
[2]; 17 days
  Stability of Plant-Derived Cannabinoid Compounds in Powder Concentrate: 5.97 mg/g powder
[2]; 18 days
  Stability of Plant-Derived Cannabinoid Compounds in Powder Concentrate: 6.01 mg/g powder
[2]; 19 days
  Stability of Plant-Derived Cannabinoid Compounds in Powder Concentrate: 5.74 mg/g powder
[2]; 22 days
  Stability of Plant-Derived Cannabinoid Compounds in Powder Concentrate: 5.84 mg/g powder
[2]; 23 days
  Stability of Plant-Derived Cannabinoid Compounds in Powder Concentrate: 6.10 mg/g powder
[2]; 24 days
  Stability of Plant-Derived Cannabinoid Compounds in Powder Concentrate: 5.89 mg/g powder
[2]; 25 days
  Stability of Plant-Derived Cannabinoid Compounds in Powder Concentrate: 6.01 mg/g powder
[2]; 26 days
  Stability of Plant-Derived Cannabinoid Compounds in Powder Concentrate: 6.00 mg/g powder
[2]; 29 days
  Stability of Plant-Derived Cannabinoid Compounds in Powder Concentrate: 5.97 mg/g powder
[2]; 30 days
  Stability of Plant-Derived Cannabinoid Compounds in Powder Concentrate: 5.94 mg/g powder
[2]; 60 days
  Stability of Plant-Derived Cannabinoid Compounds in Powder Concentrate: 5.66 mg/g powder
[2]; 90 days
  Stability of Plant-Derived Cannabinoid Compounds in Powder Concentrate: 6.00 mg/g powder
[2]; 120 days
  Stability of Plant-Derived Cannabinoid Compounds in Powder Concentrate: 5.80 mg/g powder
[2]; 150 days
  Stability of Plant-Derived Cannabinoid Compounds in Powder Concentrate: 5.65 mg/g powder
[2]; 180 days
  Stability of Plant-Derived Cannabinoid Compounds in Powder Concentrate: 5.93 mg/g powder
[2]; 210 days
  Stability of Plant-Derived Cannabinoid Compounds in Powder Concentrate: 5.83 mg/g powder
[2]; 240 days
  Stability of Plant-Derived Cannabinoid Compounds in Powder Concentrate: 5.98 mg/g powder
[2]; 270 days
  Stability of Plant-Derived Cannabinoid Compounds in Powder Concentrate: 5.72 mg/g powder
[2]; 300 days
  Stability of Plant-Derived Cannabinoid Compounds in Powder Concentrate: 5.84 mg/g powder
[2]; 330 days
  Stability of Plant-Derived Cannabinoid Compounds in Powder Concentrate: 6.01 mg/g powder
[2]; 360 days
  Stability of Plant-Derived Cannabinoid Compounds in Powder Concentrate: 5.97 mg/g powder
[2]; 390 days
  Stability of Plant-Derived Cannabinoid Compounds in Powder Concentrate: 5.93 mg/g powder
[2]; 420 days
  Stability of Plant-Derived Cannabinoid Compounds in Powder Concentrate: 5.94 mg/g powder
[2]; 450 days
  Stability of Plant-Derived Cannabinoid Compounds in Powder Concentrate: 5.65 mg/g powder
[2]; 480 days
  Stability of Plant-Derived Cannabinoid Compounds in Powder Concentrate: 5.66 mg/g powder
[2]; 510 days
  Stability of Plant-Derived Cannabinoid Compounds in Powder Concentrate: 6.01 mg/g powder
[2]; 540 days
  Stability of Plant-Derived Cannabinoid Compounds in Powder Concentrate: 5.81 mg/g powder
[2]; 570 days
  Stability of Plant-Derived Cannabinoid Compounds in Powder Concentrate: 5.85 mg/g powder
[3]; AB Red stored at 8° C.
  storage time after which some slight degradation is shown: > 420 days
[3]; AB Red stored at 21-25° C.
  storage time after which some slight degradation is shown: > 390 days

## Vitamin B12
[4]; Refrigerated (2-4° C.), 0 days
  Stability of Vitamin B12 in Nanoemulsion Concentrate 3: 28.67 ng/mL
[4]; Refrigerated (2-4° C.), 7 days
  Stability of Vitamin B12 in Nanoemulsion Concentrate 3: 30.33 ng/mL
[4]; Refrigerated (2-4° C.), 28 days
  Stability of Vitamin B12 in Nanoemulsion Concentrate 3: 29.33 ng/mL
[4]; Refrigerated (2-4° C.), 60 days
  Stability of Vitamin B12 in Nanoemulsion Concentrate 3: 30.00 ng/mL
[4]; Refrigerated (2-4° C.), 120 days
  Stability of Vitamin B12 in Nanoemulsion Concentrate 3: 32.00 ng/mL
[4]; Refrigerated (2-4° C.), 150 days
  Stability of Vitamin B12 in Nanoemulsion Concentrate 3: 29.67 ng/mL
[4]; Refrigerated (2-4° C.), 180 days
  Stability of Vitamin B12 in Nanoemulsion Concentrate 3: 32.50 ng/mL
[4]; Room Temperature (21-25° C.), 0 days
  Stability of Vitamin B12 in Nanoemulsion Concentrate 3: 28.67 ng/mL
[4]; Room Temperature (21-25° C.), 7 days
  Stability of Vitamin B12 in Nanoemulsion Concentrate 3: 24.00 ng/mL
[4]; Room Temperature (21-25° C.), 28 days
  Stability of Vitamin B12 in Nanoemulsion Concentrate 3: 22.67 ng/mL
[4]; Room Temperature (21-25° C.), 60 days
  Stability of Vitamin B12 in Nanoemulsion Concentrate 3: 22.67 ng/mL
[4]; Room Temperature (21-25° C.), 120 days
  Stability of Vitamin B12 in Nanoemulsion Concentrate 3: 19.67 ng/mL
[4]; Room Temperature (21-25° C.), 150 days
  Stability of Vitamin B12 in Nanoemulsion Concentrate 3: 19.00 ng/mL
[4]; Room Temperature (21-25° C.), 180 days
  Stability of Vitamin B12 in Nanoemulsion Concentrate 3: 16.50 ng/mL
[4]; after 180 days stored at 21-25° C.
  stability in Nanoemulsion Concentrate 3 (in words): some slight degradation
[4]; stored at 2-4° C., 180 days
  stability in Nanoemulsion Concentrate 3 (in words): high degree of stability
